Target: Mitogen-activated protein kinase kinase kinase kinase 1 (Homo sapiens, UniProt Q92918)
Assay: HPK1 Lantha Binding Assay
Method: For the binding assay, 4 ul 2×HPK1 and Eu-anti-GST antibody were added to each well of the assay plate using a Multidrop reagent dispenser. The solutions were incubated in a 23 C incubator for 1 h. To each well of the assay plate was added 4 ul 2× Tracer-222 using a Multidrop reagent dispenser. The solutions were again incubated in a 23 C incubator for 1 h. The results of the assay were read using an Envision plate reader with the following parameters: TR_FRET, 340 ex/615 and 665em; 100 usec Delay; and 200 usec integration.

Chain of Mitogen-activated protein kinase kinase kinase kinase 1 (Q92918 whole entry): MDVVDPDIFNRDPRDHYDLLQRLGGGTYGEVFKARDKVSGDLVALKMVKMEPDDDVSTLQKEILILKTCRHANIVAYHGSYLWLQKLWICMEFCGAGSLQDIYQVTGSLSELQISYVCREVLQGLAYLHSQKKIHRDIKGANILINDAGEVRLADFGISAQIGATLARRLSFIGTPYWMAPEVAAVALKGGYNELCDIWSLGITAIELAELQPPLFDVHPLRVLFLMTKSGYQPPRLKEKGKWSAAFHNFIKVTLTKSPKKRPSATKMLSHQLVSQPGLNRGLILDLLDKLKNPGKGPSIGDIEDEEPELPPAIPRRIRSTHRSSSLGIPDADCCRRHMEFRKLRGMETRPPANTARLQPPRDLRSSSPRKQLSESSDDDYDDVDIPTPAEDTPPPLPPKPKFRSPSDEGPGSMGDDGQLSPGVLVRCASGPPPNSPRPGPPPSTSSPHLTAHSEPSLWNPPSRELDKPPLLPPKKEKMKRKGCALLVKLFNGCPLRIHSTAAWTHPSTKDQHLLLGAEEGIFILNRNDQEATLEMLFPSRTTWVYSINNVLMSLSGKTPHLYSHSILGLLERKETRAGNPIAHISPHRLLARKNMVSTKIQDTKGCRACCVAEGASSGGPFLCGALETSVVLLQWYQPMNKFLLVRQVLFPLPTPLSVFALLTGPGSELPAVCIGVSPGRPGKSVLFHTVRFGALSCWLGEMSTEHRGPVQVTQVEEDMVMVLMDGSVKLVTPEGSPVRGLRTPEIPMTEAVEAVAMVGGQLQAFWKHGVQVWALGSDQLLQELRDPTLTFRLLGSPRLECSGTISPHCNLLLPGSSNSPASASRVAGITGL

Ki | Compound
0.163 µM | CN(C)C(=O)c1ccc(-c2cnc3c(c2Cl)C2(CC=CC2)CN3)cc1Cl [US12208088, Compound 192]
0.0234 µM | CN(C)C(=O)c1c(N)ccc(-c2cnc3c(c2Cl)C2(CCC(Cn4cncn4)C2)CN3)c1F (configuration not stated) [US12208088, Compound 129]
0.0115 µM | N#CC1CCCCN1C(=O)c1cccc(-c2cnc3c(c2Cl)C2(CC=CC2)CN3)c1F (configuration not stated) [US12208088, Compound 264]
0.0284 µM | O=C1NCCC1c1cccc(-c2cnc3c(c2)C2(CC2)CN3)c1F (configuration not stated) [US12208088, Compound 92]

Further lines, the molecule ahead of its results:

Compound | Ki
CN(CC(C)(C)O)C(=O)c1c(N)ccc(-c2cnc3c(c2Cl)C2(CC2)CN3)c1F [US12208088, Compound 35] | 0.0228 µM
CC1CNC(=O)N1c1c(N)ccc(-c2cnc3c(c2Cl)C2(CC2)CN3)c1F (configuration not stated) [US12208088, Compound 25] | 0.0439 µM
CC(=O)Nc1cc(C(=O)N(C)C)cc(-c2cnc3c(c2Cl)C2(CC2)CN3)c1 [US12208088, Compound 33] | 0.771 µM

From BindingDB's records for patent US12208088 (Genentech, 2025)
